Results reported in US20080260845A1, “MULTIPLE ACTIVE DRUG RESIN CONJUGATE” (priority 2003, published 2008).

Assay: In vitro drug release (dissolution) of codeine/chlorpheniramine resin conjugate suspension
Assay type: physicochemical
Method: The dissolution testing shown in Tables I and II was conducted using a release medium of hydrochloric acid, sodium chloride, and sodium dodecylsulfate. […] The dissolution profile for chlorpheniramine, shown in Table II, also is even and predictable, for example, at the initial testing, 42 percent dissolution of chlorpheniramine at 1 hour, 65 percent at 3 hours, 78 percent at 6 hours, and 88 percent at 12 hours.
Further, Tables I and II show even, predictable drug release data at one and one half months, 3 months, 6 months, and 9 months, with only very minor variations. […] Thus, with aging of the product, the release profile is consistent, allowing use of the present invention in compliance with various stability requirements for pharmaceutical products.

[1] = 1-Hour, Initial, HCl/NaCl/sodium dodecylsulfate medium

## COc1ccc2c3c1O[C@H]1[C@@H](O)C=C[C@H]4[C@@H](C2)N(C)CC[C@@]341 [Codeine, codeine]
1-Hour, 1.5M, 4O C. aging
  Codeine Release: 55%
1-Hour, 3M, 4O C. aging
  Codeine Release: 56%
1-Hour, 3M, 25 C. aging
  Codeine Release: 54%
1-Hour, 6M, 4O C. aging
  Codeine Release: 54%
1-Hour, 6M, 25 C. aging
  Codeine Release: 54%
1-Hour, 9M, 25 C. aging
  Codeine Release: 54%
[1]
  Codeine Release: 1-Hour 54%
1-Hour, Initial, HCl/NaCl/sodium dodecylsulfate medium, listed as codeine
  Codeine Release: 54%
3-Hour, 1.5M, 4O C. aging
  Codeine Release: 77%
3-Hour, 3M, 4O C. aging
  Codeine Release: 77%
3-Hour, 3M, 25 C. aging
  Codeine Release: 75%
3-Hour, 6M, 4O C. aging
  Codeine Release: 77%
3-Hour, 6M, 25 C. aging
  Codeine Release: 75%
3-Hour, 9M, 25 C. aging
  Codeine Release: 75%
3-Hour, Initial
  Codeine Release: 3-Hour 75%
3-Hour, Initial, listed as codeine
  Codeine Release: 75%
6-Hour, 1.5M, 4O C. aging
  Codeine Release: 88%
6-Hour, 3M, 4O C. aging
  Codeine Release: 88%
6-Hour, 3M, 25 C. aging
  Codeine Release: 86%
6-Hour, 6M, 4O C. aging
  Codeine Release: 87%
6-Hour, 6M, 25 C. aging
  Codeine Release: 85%
6-Hour, 9M, 25 C. aging
  Codeine Release: 86%
6-Hour, Initial
  Codeine Release: 6-Hour 86%
6-Hour, Initial, listed as codeine
  Codeine Release: 86%
12-Hour, 1.5M, 4O C. aging
  Codeine Release: 95%
12-Hour, 3M, 4O C. aging
  Codeine Release: 95%
12-Hour, 3M, 25 C. aging
  Codeine Release: 93%
12-Hour, 6M, 4O C. aging
  Codeine Release: 94%
12-Hour, 6M, 25 C. aging
  Codeine Release: 93%
12-Hour, 9M, 25 C. aging
  Codeine Release: 94%
12-Hour, Initial
  Codeine Release: 12-Hour 93%
12-Hour, Initial, listed as codeine
  Codeine Release: 93%

## CN(C)CCC(c1ccc(Cl)cc1)c1ccccn1 (stereo not shown) [Chlorpheniramine, chlorpheniramine]
1-Hour, 1.5M, 4O C. aging
  Chlorpheniramine Release: 41%
1-Hour, 3M, 4O C. aging
  Chlorpheniramine Release: 43%
1-Hour, 3M, 25 C. aging
  Chlorpheniramine Release: 43%
1-Hour, 6M, 4O C. aging
  Chlorpheniramine Release: 39%
1-Hour, 6M, 25 C. aging
  Chlorpheniramine Release: 41%
1-Hour, 9M, 25 C. aging
  Chlorpheniramine Release: 42%
[1]
  Chlorpheniramine Release: 1-Hour 42%
1-Hour, Initial, HCl/NaCl/sodium dodecylsulfate medium, listed as chlorpheniramine
  Chlorpheniramine Release: 42%
3-Hour, 1.5M, 4O C. aging
  Chlorpheniramine Release: 63%
3-Hour, 3M, 4O C. aging
  Chlorpheniramine Release: 65%
3-Hour, 3M, 25 C. aging
  Chlorpheniramine Release: 64%
3-Hour, 6M, 4O C. aging
  Chlorpheniramine Release: 62%
3-Hour, 6M, 25 C. aging
  Chlorpheniramine Release: 63%
3-Hour, 9M, 25 C. aging
  Chlorpheniramine Release: 63%
3-Hour, Initial
  Chlorpheniramine Release: 3-Hour 65%
3-Hour, Initial, listed as chlorpheniramine
  Chlorpheniramine Release: 65%
6-Hour, 1.5M, 4O C. aging
  Chlorpheniramine Release: 77%
6-Hour, 3M, 4O C. aging
  Chlorpheniramine Release: 78%
6-Hour, 3M, 25 C. aging
  Chlorpheniramine Release: 77%
6-Hour, 6M, 4O C. aging
  Chlorpheniramine Release: 76%
6-Hour, 6M, 25 C. aging
  Chlorpheniramine Release: 76%
6-Hour, 9M, 25 C. aging
  Chlorpheniramine Release: 77%
6-Hour, Initial
  Chlorpheniramine Release: 6-Hour 78%
6-Hour, Initial, listed as chlorpheniramine
  Chlorpheniramine Release: 78%
12-Hour, 1.5M, 4O C. aging
  Chlorpheniramine Release: 87%
12-Hour, 3M, 4O C. aging
  Chlorpheniramine Release: 90%
12-Hour, 3M, 25 C. aging
  Chlorpheniramine Release: 88%
12-Hour, 6M, 4O C. aging
  Chlorpheniramine Release: 87%
12-Hour, 6M, 25 C. aging
  Chlorpheniramine Release: 87%
12-Hour, 9M, 25 C. aging
  Chlorpheniramine Release: 88%
12-Hour, Initial
  Chlorpheniramine Release: 12-Hour 88%
12-Hour, Initial, listed as chlorpheniramine
  Chlorpheniramine Release: 88%
